{"source": "patent US20230382868A1", "about": "(priority 2022, published 2023)", "key": {"hBChE": {"target": "hBChE (Homo sapiens, UniProt P06276)", "sequence (P06276 29-602)": "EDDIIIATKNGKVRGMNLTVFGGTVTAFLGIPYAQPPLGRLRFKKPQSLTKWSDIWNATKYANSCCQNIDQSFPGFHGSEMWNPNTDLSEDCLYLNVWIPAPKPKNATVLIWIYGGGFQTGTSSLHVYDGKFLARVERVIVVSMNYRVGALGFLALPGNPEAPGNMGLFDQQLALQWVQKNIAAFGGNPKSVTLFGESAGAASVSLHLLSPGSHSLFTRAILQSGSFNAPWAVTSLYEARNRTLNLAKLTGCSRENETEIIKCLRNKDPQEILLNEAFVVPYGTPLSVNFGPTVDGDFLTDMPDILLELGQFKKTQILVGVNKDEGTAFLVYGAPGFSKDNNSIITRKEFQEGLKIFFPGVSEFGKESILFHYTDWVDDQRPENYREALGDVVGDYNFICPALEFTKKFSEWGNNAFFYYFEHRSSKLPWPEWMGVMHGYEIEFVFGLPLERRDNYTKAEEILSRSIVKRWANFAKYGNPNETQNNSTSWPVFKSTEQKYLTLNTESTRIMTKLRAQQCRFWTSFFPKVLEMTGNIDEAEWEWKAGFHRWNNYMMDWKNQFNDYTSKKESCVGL", "test": "biochemical", "format": "biochemical"}, "hMAO-B": {"target": "T1, hMAO-B (Homo sapiens, UniProt P27338)", "T1 construct": "purchased Sigma Aldrich; host or cells: BTI-TN-5B1-4 insect cells", "T1 sequence (P27338 1-520)": "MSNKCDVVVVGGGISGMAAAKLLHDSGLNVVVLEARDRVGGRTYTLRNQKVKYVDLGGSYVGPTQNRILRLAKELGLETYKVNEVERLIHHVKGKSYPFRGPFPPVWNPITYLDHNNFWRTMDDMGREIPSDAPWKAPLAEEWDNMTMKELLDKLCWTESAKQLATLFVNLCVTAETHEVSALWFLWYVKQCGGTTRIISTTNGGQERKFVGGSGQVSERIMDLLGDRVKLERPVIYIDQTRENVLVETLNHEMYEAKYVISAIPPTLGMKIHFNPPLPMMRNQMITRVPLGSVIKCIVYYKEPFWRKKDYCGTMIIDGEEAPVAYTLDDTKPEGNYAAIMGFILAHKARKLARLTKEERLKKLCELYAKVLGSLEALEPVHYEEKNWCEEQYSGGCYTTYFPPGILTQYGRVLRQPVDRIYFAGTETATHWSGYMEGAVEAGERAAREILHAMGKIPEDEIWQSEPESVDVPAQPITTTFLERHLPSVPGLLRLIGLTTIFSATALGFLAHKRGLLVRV", "format": "biochemical", "settings": "read-out: IC50 ± SEM hMAO-B"}, "[1]": {"test": "DPPH radical-scavenging assay", "settings": "read-out: free-radical scavenging potency EC50 ± SEM (concentration that scavenged 50% of the DPPH free radicals); DPPH in MeOH, 90 min, room temperature, dark", "description": "Free-radical scavenging potency was evaluated using the DPPH assay. […] The microtiter plate was incubated at room temperature in the dark for 90 min. The absorbance at 517 nm was then determined with a microplate reader (Synergy HT; BioTek Instruments, Inc., VT, USA). The experiments were performed in triplicate, with subtraction of the blank value (compound without DPPH). The percentages of DPPH free radicals were calculated as DPPH free radical (%)=[(A0−A1)/A0]×100, where A0 is the absorbance of the negative control, and A1 is the absorbance of the test sample. […] Resveratrol and Trolox were used as the positive controls under the same assay conditions."}, "[2]": {"test": "Metal-chelating properties (UV-Vis spectra, Cu2+ titration, Yoe-Jones method)", "format": "physicochemical", "settings": "30 μM compound; for interception point of Cu2+ titration (Yoe-Jones method): 0-150 μM Cu2+, Cu2+/compound molar ratio; for change in absorption spectra on addition of Fe2+ and Fe3+ / change in absorption spectra with Ca2+ and Mg2+: equimolar metal ion, HEPES buffer pH 7.4", "description": "The chelation properties were determined in HEPES buffer (20 mM, 150 mM NaCl, pH 7.4) using a 96-well microplate reader (Synergy HT; BioTek Instruments, Inc., VT, USA). To determine the chelation of the metal ions by the compounds, 30 μM compound solution was treated with equimolar concentrations of CuCl2, ZnCl2, CoCl2, MgCl2, CaCl2, FeCl2, FeCl3, and AlCl3. To prevent oxidation of Fe^2+, the solution of FeCl2 was prepared in the presence of 1 mM ascorbic acid. The absorption spectra were recorded after 30 min incubation at room temperature. The chelation was detected by the change in the absorption spectra, which was specific for each metal ion. The Cu^2+ binding stoichiometry was resolved by titration of a 30 μM buffered solution of the compounds with additions of CuCl2 buffered stock solution. […] The absorbance differences in the absence and presence of Cu^2+ were plotted against the Cu^2+/compound molar ratio."}, "hAChE": {"target": "hAChE (Homo sapiens, UniProt P22303)", "sequence (P22303 32-614)": "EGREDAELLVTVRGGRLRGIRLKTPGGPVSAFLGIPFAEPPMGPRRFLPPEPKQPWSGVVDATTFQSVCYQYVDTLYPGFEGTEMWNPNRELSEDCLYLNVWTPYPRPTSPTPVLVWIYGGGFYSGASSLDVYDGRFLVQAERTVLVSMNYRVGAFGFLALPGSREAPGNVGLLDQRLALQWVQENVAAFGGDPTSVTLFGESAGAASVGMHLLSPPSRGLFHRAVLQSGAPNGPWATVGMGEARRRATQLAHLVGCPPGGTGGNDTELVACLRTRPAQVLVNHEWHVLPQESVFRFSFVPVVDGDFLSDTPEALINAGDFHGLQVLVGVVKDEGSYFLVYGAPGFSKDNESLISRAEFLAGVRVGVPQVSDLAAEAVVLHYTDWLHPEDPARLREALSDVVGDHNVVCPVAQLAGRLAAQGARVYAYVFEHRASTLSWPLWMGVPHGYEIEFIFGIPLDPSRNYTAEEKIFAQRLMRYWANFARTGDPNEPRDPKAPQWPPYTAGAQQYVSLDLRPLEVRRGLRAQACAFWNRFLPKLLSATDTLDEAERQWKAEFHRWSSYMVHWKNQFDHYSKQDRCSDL", "test": "Inhibition of cholinesterases (Ellman method)", "format": "biochemical", "settings": "n.a. = not active (residual activity at 100 μM ≥50%); three independent experiments; read-out: IC50 ± SEM hAChE"}, "primary cultured neurons": {"system": "primary cultured neurons", "test": "Neuroprotection of primary cultured neurons after experimental ischemia", "format": "cell-based", "settings": "statement in words, no method given"}, "[3]": {"test": "Antioxidant capacity against hydroxyl radicals", "settings": "statement in words, no method given"}, "[4]": {"settings": "HEPES buffer pH 7.4, 30 min, room temperature"}}, "note": "Read-outs that look alike come from different tables or passages of the source.", "data": [{"smiles": "C#CCN1CCN(CCCOc2cccc3ccc(/C=[N+](\\[O-])C(C)(C)C)nc23)CC1", "note": "[Compound 7, (Z)-N-tert-Butyl-1-(8-(3-(4-(prop-2-yn-1-yl)piperazin-1-yl)propoxy)quinolin-2-yl)methanimine oxide]", "values": [{"measurement": "IC50", "setting": "hBChE; read-out: IC50 ± SEM hBChE", "value": "7.3 ± 1.1", "unit": "nM"}]}, {"smiles": "[O-]/[N+](=C\\c1ccc2cccc(OCCCN3CCCCC3)c2n1)Cc1ccccc1", "note": "[Compound 4, (Z)-N-Benzyl-1-(8-(3-(piperidin-1-yl)propoxy)quinolin-2-yl)methanimine oxide]", "values": [{"measurement": "IC50", "setting": "hBChE", "value": "76.9 ± 6.3", "unit": "nM"}]}, {"smiles": "C#CCN1CCN(CCCOc2cccc3ccc(/C=[N+](\\[O-])Cc4ccccc4)nc23)CC1", "note": "[Compound 8, (Z)-N-Benzyl-1-(8-(3-(4-(prop-2-yn-1-yl)piperazin-1-yl)propoxy)quinolin-2-yl)methanimine oxide]", "values": [{"measurement": "IC50", "setting": "hBChE", "value": "31 ± 6.4", "unit": "nM"}]}, {"smiles": "CC(C)(C)/[N+]([O-])=C/c1ccc2cccc(O)c2n1", "note": "[Compound 10, (Z)-N-tert-butyl-1-(8-hydroxyquinolin-2-yl)methanimine oxide]", "values": [{"measurement": "IC50", "setting": "hMAO-B", "value": "16.4 ± 1", "unit": "µM"}, {"measurement": "IC50", "setting": "hBChE; read-out: IC50 ± SEM hBChE", "value": "5.1 ± 0.6", "unit": "nM"}, {"measurement": "EC50", "setting": "[1]", "value": "119 ± 1.2", "unit": "µM"}, {"measurement": "interception point of Cu2+ titration (Yoe-Jones method)", "setting": "[2]", "value": 0.5}, {"measurement": "new absorption maximum with equimolar Al3+ (bathochromic shift)", "setting": "[2]; [4]", "value": 296, "unit": "nm"}, {"measurement": "new absorption maximum with equimolar Cu2+ (bathochromic shift)", "setting": "[2]; [4]", "value": 310, "unit": "nm"}, {"measurement": "new absorption maximum with equimolar Zn2+ (bathochromic shift)", "setting": "[2]; [4]", "value": 309, "unit": "nm"}, {"measurement": "change in absorption spectra on addition of Fe2+ and Fe3+", "setting": "[2]", "value": "hyperchromic shift"}, {"measurement": "change in absorption spectra with Ca2+ and Mg2+", "setting": "[2]", "value": "no major changes in absorption spectra"}]}, {"smiles": "C/[N+]([O-])=C/c1ccc2cccc(O)c2n1", "note": "[Compound 9, (Z)-1-(8-Hydroxyquinolin-2-yl)-N-methylmethanimine oxide]", "values": [{"measurement": "IC50", "setting": "hMAO-B", "value": "10.1 ± 2.5", "unit": "µM"}]}, {"smiles": "[O-]/[N+](=C\\c1ccc2cccc(O)c2n1)Cc1ccccc1", "note": "[Compound 11, (Z)-N-Benzyl-1-(8-hydroxyquinolin-2-yl)methanimine oxide]", "values": [{"measurement": "IC50", "setting": "hBChE", "value": "≤ 1.1", "unit": "nM"}, {"measurement": "IC50", "setting": "hAChE", "value": "29 ± 3", "unit": "nM"}, {"measurement": "EC50", "setting": "[1]", "value": "126 ± 0.1", "unit": "µM"}, {"measurement": "neuroprotection of primary cultured neurons after experimental ischemia", "setting": "primary cultured neurons", "value": "remarkable activity for neuroprotection"}, {"measurement": "interception point of Cu2+ titration (Yoe-Jones method)", "setting": "[2]", "value": 0.5}, {"measurement": "change in absorption spectra on addition of Fe2+ and Fe3+", "setting": "[2]", "value": "hypochromic change in absorbance spectra"}, {"measurement": "change in absorption spectra with Ca2+ and Mg2+", "setting": "[2]", "value": "no major alterations in spectra"}, {"measurement": "antioxidant capacity against hydroxyl radicals", "setting": "[3]", "value": "striking antioxidant capacity"}]}, {"smiles": "CC(C)(C)/[N+]([O-])=C/c1ccc2cccc(OCCCN3CCCCC3)c2n1", "note": "[Compound 3, (Z)-N-tert-Butyl-1-(8-(3-(piperidin-1-yl)propoxy)quinolin-2-yl)methanimine oxide]", "values": [{"measurement": "IC50", "setting": "hBChE; read-out: IC50 ± SEM hBChE", "value": "25.4 ± 2.1", "unit": "nM"}]}]}
